Assays:
[1] = biological target: CREBBP (Homo sapiens, UniProt Q92793); assay: cell-free H3K27 acetylation, immunoblot; format: biochemical
[2] = biological target: T1, p300 bromodomain (Homo sapiens, UniProt Q09472); assay: SPR, single-cycle kinetics, NTA chip; format: binding
T1 sequence (Q09472 1049-1156 limits assumed): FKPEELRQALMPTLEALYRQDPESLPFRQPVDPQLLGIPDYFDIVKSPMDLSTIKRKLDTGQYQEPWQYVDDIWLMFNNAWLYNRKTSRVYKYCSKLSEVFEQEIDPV

[3] = biological target: p300 (Homo sapiens, UniProt Q09472); assay: cell-free H3K27 acetylation, immunoblot; format: biochemical
p300, sequence (Q09472 2-2414): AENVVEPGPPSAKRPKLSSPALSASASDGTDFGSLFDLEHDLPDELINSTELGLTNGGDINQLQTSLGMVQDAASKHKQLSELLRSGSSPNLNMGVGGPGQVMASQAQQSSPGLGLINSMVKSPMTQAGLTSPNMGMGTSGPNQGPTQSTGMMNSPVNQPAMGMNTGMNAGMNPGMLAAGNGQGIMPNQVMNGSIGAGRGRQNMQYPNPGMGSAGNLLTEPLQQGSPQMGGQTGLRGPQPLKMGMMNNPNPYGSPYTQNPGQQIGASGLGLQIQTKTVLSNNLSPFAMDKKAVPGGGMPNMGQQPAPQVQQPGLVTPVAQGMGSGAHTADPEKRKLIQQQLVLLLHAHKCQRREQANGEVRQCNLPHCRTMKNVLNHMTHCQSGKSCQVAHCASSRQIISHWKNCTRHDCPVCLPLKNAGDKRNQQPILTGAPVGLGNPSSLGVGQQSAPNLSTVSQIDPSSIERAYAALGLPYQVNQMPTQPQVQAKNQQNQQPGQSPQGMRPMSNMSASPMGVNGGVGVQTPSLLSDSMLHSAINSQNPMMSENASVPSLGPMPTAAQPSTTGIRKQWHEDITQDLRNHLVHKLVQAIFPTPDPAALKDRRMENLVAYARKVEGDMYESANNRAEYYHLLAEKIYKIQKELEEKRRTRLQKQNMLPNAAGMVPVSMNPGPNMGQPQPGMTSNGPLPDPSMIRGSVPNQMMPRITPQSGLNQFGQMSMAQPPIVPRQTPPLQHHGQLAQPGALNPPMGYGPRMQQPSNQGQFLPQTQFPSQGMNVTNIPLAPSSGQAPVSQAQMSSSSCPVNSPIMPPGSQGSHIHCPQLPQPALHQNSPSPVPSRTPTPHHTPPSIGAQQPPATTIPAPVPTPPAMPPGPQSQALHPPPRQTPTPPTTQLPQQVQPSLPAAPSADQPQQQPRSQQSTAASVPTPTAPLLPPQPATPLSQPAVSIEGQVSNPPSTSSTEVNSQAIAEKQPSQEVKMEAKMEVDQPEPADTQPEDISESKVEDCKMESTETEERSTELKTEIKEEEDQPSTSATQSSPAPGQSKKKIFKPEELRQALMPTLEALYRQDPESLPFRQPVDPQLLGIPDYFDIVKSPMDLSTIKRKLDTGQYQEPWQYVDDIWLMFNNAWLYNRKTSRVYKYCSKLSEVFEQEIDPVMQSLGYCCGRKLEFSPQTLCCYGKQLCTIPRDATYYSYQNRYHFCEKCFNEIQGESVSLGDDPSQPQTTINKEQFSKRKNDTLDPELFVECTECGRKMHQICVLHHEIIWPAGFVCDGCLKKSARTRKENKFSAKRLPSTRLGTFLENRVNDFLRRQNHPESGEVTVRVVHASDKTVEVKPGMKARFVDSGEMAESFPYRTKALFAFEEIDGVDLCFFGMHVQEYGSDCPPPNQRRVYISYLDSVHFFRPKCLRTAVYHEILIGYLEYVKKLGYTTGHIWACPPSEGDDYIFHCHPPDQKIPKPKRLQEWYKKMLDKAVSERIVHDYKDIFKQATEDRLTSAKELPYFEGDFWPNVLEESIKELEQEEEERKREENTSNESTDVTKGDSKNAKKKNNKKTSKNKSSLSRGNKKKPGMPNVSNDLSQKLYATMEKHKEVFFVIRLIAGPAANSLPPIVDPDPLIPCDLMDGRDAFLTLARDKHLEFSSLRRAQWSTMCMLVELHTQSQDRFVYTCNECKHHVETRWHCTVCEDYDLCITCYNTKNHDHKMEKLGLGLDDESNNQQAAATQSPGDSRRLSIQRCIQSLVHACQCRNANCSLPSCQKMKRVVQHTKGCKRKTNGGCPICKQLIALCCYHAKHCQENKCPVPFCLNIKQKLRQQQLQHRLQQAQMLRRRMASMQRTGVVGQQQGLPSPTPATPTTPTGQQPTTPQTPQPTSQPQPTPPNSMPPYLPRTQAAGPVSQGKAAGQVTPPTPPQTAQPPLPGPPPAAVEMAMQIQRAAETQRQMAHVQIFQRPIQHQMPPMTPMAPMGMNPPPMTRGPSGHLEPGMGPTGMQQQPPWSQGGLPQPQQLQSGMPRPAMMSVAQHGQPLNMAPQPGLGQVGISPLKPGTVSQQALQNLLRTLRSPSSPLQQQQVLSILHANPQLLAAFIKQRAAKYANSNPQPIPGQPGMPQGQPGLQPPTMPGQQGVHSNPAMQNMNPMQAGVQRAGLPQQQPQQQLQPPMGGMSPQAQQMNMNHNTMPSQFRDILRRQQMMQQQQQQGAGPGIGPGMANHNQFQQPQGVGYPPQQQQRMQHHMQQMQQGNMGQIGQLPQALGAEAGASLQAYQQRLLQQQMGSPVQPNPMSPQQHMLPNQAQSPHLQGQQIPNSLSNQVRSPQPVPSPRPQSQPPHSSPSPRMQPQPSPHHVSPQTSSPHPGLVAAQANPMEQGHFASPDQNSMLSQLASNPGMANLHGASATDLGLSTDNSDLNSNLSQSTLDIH

CREBBP, sequence (Q92793 2-2442): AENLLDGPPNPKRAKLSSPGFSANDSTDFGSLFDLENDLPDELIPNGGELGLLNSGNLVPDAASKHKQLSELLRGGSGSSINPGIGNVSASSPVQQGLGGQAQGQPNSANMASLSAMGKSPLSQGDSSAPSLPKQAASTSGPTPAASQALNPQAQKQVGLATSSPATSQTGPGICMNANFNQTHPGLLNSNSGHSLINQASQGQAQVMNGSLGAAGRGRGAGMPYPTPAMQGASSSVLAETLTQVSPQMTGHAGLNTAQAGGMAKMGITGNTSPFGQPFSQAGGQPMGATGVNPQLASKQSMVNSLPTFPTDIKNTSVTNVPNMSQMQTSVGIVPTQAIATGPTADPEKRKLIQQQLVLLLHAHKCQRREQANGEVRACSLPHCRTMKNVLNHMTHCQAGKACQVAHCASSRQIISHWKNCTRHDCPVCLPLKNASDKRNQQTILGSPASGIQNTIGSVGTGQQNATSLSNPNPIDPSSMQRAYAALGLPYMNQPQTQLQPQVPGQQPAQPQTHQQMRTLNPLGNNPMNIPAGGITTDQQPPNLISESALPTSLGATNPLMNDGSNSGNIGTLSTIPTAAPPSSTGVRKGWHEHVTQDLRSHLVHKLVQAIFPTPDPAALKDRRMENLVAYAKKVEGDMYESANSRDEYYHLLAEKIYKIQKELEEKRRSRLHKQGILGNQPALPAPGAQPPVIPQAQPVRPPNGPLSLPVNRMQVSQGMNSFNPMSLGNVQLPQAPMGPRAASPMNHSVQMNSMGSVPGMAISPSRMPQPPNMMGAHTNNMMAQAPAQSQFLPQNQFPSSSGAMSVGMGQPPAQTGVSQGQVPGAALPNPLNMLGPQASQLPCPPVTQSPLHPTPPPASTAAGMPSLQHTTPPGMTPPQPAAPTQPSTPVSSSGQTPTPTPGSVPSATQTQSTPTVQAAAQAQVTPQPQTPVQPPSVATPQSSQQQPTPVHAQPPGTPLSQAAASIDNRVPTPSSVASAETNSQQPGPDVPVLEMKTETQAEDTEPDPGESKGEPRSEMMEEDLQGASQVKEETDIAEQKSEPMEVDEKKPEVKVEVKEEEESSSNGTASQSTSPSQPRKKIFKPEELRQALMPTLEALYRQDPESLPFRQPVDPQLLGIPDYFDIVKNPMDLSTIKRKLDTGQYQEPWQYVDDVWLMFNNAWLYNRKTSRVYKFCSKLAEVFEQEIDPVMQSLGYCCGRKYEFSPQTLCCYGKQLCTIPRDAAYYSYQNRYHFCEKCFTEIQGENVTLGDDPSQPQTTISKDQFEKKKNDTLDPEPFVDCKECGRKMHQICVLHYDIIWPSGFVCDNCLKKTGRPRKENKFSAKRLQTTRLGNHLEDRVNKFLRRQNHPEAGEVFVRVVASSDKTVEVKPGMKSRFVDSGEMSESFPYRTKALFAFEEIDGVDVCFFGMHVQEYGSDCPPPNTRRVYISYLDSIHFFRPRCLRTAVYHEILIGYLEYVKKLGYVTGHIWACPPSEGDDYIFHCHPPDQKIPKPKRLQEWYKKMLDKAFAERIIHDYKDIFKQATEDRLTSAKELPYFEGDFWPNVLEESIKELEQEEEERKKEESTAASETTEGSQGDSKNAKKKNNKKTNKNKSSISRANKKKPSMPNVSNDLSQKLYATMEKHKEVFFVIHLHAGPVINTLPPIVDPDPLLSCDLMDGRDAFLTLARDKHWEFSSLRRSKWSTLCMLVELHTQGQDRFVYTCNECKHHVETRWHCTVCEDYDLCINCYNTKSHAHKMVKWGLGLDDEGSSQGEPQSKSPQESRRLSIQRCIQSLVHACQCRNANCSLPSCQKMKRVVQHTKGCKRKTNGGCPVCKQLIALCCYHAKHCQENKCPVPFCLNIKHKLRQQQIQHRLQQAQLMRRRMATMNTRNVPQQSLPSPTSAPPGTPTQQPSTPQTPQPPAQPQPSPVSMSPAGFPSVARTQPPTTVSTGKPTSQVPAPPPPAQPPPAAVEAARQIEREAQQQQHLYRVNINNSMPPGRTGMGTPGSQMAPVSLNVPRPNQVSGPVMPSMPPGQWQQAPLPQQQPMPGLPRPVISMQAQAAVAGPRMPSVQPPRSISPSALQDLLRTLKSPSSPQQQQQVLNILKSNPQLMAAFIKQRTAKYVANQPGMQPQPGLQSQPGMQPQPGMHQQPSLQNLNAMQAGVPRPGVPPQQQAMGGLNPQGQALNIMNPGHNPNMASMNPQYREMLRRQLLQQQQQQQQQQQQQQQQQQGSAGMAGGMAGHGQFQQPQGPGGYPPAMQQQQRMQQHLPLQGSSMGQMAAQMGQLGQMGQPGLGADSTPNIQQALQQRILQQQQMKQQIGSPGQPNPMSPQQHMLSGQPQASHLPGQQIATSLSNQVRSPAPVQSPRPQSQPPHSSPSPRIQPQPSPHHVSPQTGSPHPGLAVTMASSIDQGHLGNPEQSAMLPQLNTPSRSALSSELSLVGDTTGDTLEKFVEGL

An EC50 [1] of 15.8 µM, a Kd [2] of 4.42 µM and an EC50 [3] of 4.32 µM were found for `CCOc1cccc(OCCN(C)C)c1C(=O)Nc1ccc(Cl)c(C(F)(F)F)c1` [YF2] in this work.

Source: doi:10.1101/2025.03.13.642871v2 (biorxiv, 2026)
